From ChEMBL document CHEMBL3792311, “In vitro and in vivo activity of ML302F: a thioenolate inhibitor of VIM-subfamily metallo -lactamases” (Medchemcomm, 2016)
In brackets after ≈: the same amount, converted by molar mass.

Columns and labels:
Assay type in all cases: functional
Enterobacter cloacae = test: Antibacterial activity against VIM4 carbapenemase producing multidrug-resistant Enterobacter cloacae 102 clinical isolate by broth microtiter dilution method
Klebsiella pneumoniae [1] = test: Antibacterial activity against VIM4 carbapenemase producing multidrug-resistant Klebsiella pneumoniae 128 clinical isolate by broth microtiter dilution method
Klebsiella pneumoniae [2] = test: Antibacterial activity against VIM4 carbapenemase producing multidrug-resistant Klebsiella pneumoniae 120 clinical isolate infected in Galleria mellonella larvae assessed as survival rate at 0.6 mg/kg measured at 96 hrs; conditions: Klebsiella pneumoniae, 120, 96 h
Providencia stuartii [3] = test: Antibacterial activity against VIM1 carbapenemase producing multidrug-resistant Providencia stuartii 67 clinical isolate by broth microtiter dilution method
Pseudomonas aeruginosa [4] = test: Antibacterial activity against VIM2 carbapenemase producing multidrug-resistant Pseudomonas aeruginosa GR57 clinical isolate by broth microtiter dilution method
Pseudomonas aeruginosa [5] = test: Antibacterial activity against VIM2 carbapenemase producing multidrug-resistant Pseudomonas aeruginosa GR58 clinical isolate by broth microtiter dilution method
Klebsiella pneumoniae [6] = test: Antibacterial activity against VIM4 carbapenemase producing multidrug-resistant Klebsiella pneumoniae 101 clinical isolate by broth microtiter dilution method
Pseudomonas aeruginosa [7] = test: Antibacterial activity against VIM2 carbapenemase producing multidrug-resistant Pseudomonas aeruginosa GR62 clinical isolate by broth microtiter dilution method
Pseudomonas aeruginosa [8] = test: Antibacterial activity against VIM2 carbapenemase producing multidrug-resistant Pseudomonas aeruginosa GR57 clinical isolate infected in Galleria mellonella larvae assessed as survival rate at 0.6 mg/kg measured at 96 hrs; conditions: GR57, 96 h
Klebsiella pneumoniae [9] = test: Antibacterial activity against VIM1 carbapenemase producing multidrug-resistant Klebsiella pneumoniae GR54 clinical isolate by broth microtiter dilution method
Pseudomonas aeruginosa [10] = test: Antibacterial activity against VIM2 carbapenemase producing multidrug-resistant Pseudomonas aeruginosa 6 clinical isolate by broth microtiter dilution method
Klebsiella pneumoniae [11] = test: Antibacterial activity against VIM1 carbapenemase producing multidrug-resistant Klebsiella pneumoniae 177 clinical isolate by broth microtiter dilution method
Pseudomonas aeruginosa [12] = test: Antibacterial activity against VIM2 carbapenemase producing multidrug-resistant Pseudomonas aeruginosa 13 clinical isolate by broth microtiter dilution method
Pseudomonas aeruginosa [13] = test: Antibacterial activity against VIM2 carbapenemase producing multidrug-resistant Pseudomonas aeruginosa 47 clinical isolate by broth microtiter dilution method
Providencia stuartii [14] = test: Antibacterial activity against VIM1 carbapenemase producing multidrug-resistant Providencia stuartii 70 clinical isolate by broth microtiter dilution method
Pseudomonas aeruginosa [15] = test: Antibacterial activity against VIM2 carbapenemase producing multidrug-resistant Pseudomonas aeruginosa 8 clinical isolate by broth microtiter dilution method
Pseudomonas aeruginosa [16] = test: Antibacterial activity against VIM2 carbapenemase producing multidrug-resistant Pseudomonas aeruginosa 9 clinical isolate by broth microtiter dilution method
Pseudomonas aeruginosa [17] = test: Antibacterial activity against VIM2 carbapenemase producing multidrug-resistant Pseudomonas aeruginosa 11 clinical isolate by broth microtiter dilution method
Klebsiella oxytoca [18] = test: Antibacterial activity against VIM4 carbapenemase producing multidrug-resistant Klebsiella oxytoca 95 clinical isolate by broth microtiter dilution method
Pseudomonas aeruginosa [19] = test: Antibacterial activity against VIM2 carbapenemase producing multidrug-resistant Pseudomonas aeruginosa 12 clinical isolate by broth microtiter dilution method
Pseudomonas aeruginosa [20] = test: Antibacterial activity against VIM2 carbapenemase producing multidrug-resistant Pseudomonas aeruginosa GR64 clinical isolate by broth microtiter dilution method
Klebsiella oxytoca [21] = test: Antibacterial activity against VIM4 carbapenemase producing multidrug-resistant Klebsiella oxytoca 126 clinical isolate by broth microtiter dilution method
Pseudomonas aeruginosa [22] = test: Antibacterial activity against VIM2 carbapenemase producing multidrug-resistant Pseudomonas aeruginosa 50 clinical isolate by broth microtiter dilution method
Escherichia coli = test: Antibacterial activity against VIM4 carbapenemase producing multidrug-resistant Escherichia coli 98 clinical isolate infected in Galleria mellonella larvae assessed as survival rate at 0.6 mg/kg measured at 96 hrs; conditions: Escherichia coli, 98, 96 h

C[C@@H](O)[C@H]1C(=O)N2C(C(=O)O)=C(S[C@@H]3CN[C@H](C(=O)N(C)C)C3)[C@H](C)[C@H]12 [MEROPENEM]
MIC (Enterobacter cloacae): 32 µg/mL (≈ 83.4 µM)
MIC (Klebsiella pneumoniae [1]): 4 µg/mL (≈ 10.4 µM)
survival at 0.6 mg/kg (Klebsiella pneumoniae [2]): 69%
MIC (Providencia stuartii [3]): 8 µg/mL (≈ 20.9 µM)
MIC (Pseudomonas aeruginosa [4]): 32 µg/mL (≈ 83.4 µM)
MIC (Pseudomonas aeruginosa [5]): 32 µg/mL (≈ 83.4 µM)
MIC (Klebsiella pneumoniae [6]): 32 µg/mL (≈ 83.4 µM)
MIC (Pseudomonas aeruginosa [7]): 32 µg/mL (≈ 83.4 µM)
survival at 0.6 mg/kg (Pseudomonas aeruginosa [8]): 23%
MIC (Klebsiella pneumoniae [9]): 128 µg/mL (≈ 334 µM)
MIC (Pseudomonas aeruginosa [10]): 128 µg/mL (≈ 334 µM)
MIC (Klebsiella pneumoniae [11]): 1 µg/mL (≈ 2.61 µM)
MIC (Pseudomonas aeruginosa [12]): 32 µg/mL (≈ 83.4 µM)
MIC (Pseudomonas aeruginosa [13]): 32 µg/mL (≈ 83.4 µM)
MIC (Providencia stuartii [14]): 8 µg/mL (≈ 20.9 µM)
MIC (Pseudomonas aeruginosa [15]): 128 µg/mL (≈ 334 µM)
MIC (Pseudomonas aeruginosa [16]): 128 µg/mL (≈ 334 µM)
MIC (Pseudomonas aeruginosa [17]): 32 µg/mL (≈ 83.4 µM)
MIC (Klebsiella oxytoca [18]): 32 µg/mL (≈ 83.4 µM)
MIC (Pseudomonas aeruginosa [19]): 128 µg/mL (≈ 334 µM)
MIC (Pseudomonas aeruginosa [20]): 32 µg/mL (≈ 83.4 µM)
MIC (Klebsiella oxytoca [21]): 32 µg/mL (≈ 83.4 µM)
MIC (Pseudomonas aeruginosa [22]): 32 µg/mL (≈ 83.4 µM)
survival at 0.6 mg/kg (Escherichia coli): 44%
